System: M17-TAU P301L cells
Test: Tau-induced toxicity experiment: LDH leakage of retinoic acid incubated M17-TAU P301L cells
Format: cell-based
Details: Homo sapiens, Neuroblastoma cell, 168 h; reduction of LDH activity of retinoic acid incubated M17-TAU P301L neuroblastoma cells, 7 days
Description: A TAU expression plasmid was constructed by sub-cloning the cDNA of human TAU-P301L (encoding for TAU with proline 301 substituted by a leucine residue) into mammalian expression vector pcDNA3.1 resulting in plasmid pcDNA3.1-TAU P301L. Plasmids pcDNA3.1 and pcDNA3.1-TAU P301L were transfected to human neuroblastoma cells ([…]; ATCC No. CRL-2267) and independent clonal lines with the plasmids stably integrated into the genome were selected. […] Expression of the TAU P301L genes in the cell lines was confirmed by Western analysis.
In degenerated or dead cells lactate dehydrogenase (LDH) is leaked out of the cells into the extracellular environment due to a loss of plasma-membrane integrity. This principle was used to determine cytotoxicity by quantifying the level of leaked LDH into the growth medium.
The detailed method for determining TAU cytotoxicity was as follows: From appropriate precultures of M17-3.1 and M17-TAU(P301L) cells were seeded at 2500 cells/cm2 in Optimem Reduced Serum without phenol red (Gibco, Cat. 31985-047) supplemented with 1% fetal calf serum, 1 mM sodium pyruvate, 1× non-essential amino acids, 500 μg/ml G418 0.5× antibiotic/antimycotic. After 3 h of incubation at 37° C./5% CO2 1 volume of Optimem Reduced Serum (same as described above; except without fetal calf serum) supplemented with 2.5 μM retinoic acid (RA) was added. The cells were further incubated for 7 days. Subsequently, LDH activity was determined using Promega Cytotox 96 Non-Radioactive cytotoxicity assay, (Cat. G1780) according the supplier's instructions.
The M17-TAU P301L cell line made it possible to assess the ability of novel compounds to counteract TAU cytotoxicity. […] These measurements were used to calculate EC50 values of table 2.

Row | SMILES | EC50 [µM]
1 | COc1ccccc1Cc1ccc(C(=O)NCCc2c[nH]c3ccc(Cl)cc23)cc1 [Cpd029, N-(2-(5-chloro-1H-indol-3-yl)ethyl)-4-(2-methoxybenzyl)benzamide] | 0.084
2 | O=C(NCCc1c[nH]c2ccc(Cl)cc12)c1ccc(Cc2cccc(F)c2F)cc1 [Cpd103, N-(2-(5-chloro-1H-indol-3-yl)ethyl)-4-(2,3-difluorobenzyl)benzamide] | 0.139
3 | O=C(NCCc1c[nH]c2ccc(N3CCOCC3)cc12)c1ccc(Cc2cccc(F)c2)cc1 [Cpd116, 4-(3-fluorobenzyl)-N-(2-(5-morpholino-1H-indol-3-yl)ethyl)benzamide] | 0.166
4 | CN(c1ccccc1)c1cccc(C(=O)NCCc2c[nH]c3ccc(Cl)cc23)c1 [Cpd097, N-(2-(5-chloro-1H-indol-3-yl)ethyl)-3-(methyl(phenyl)amino)benzamide] | 0.27
5 | COc1cccc(Cc2ccc(C(=O)NCCc3c[nH]c4ccc(Cl)cc34)cc2)c1F [Cpd068, N-(2-(5-chloro-1H-indol-3-yl)ethyl)-4-(2-fluoro-3-methoxybenzyl)benzamide] | 0.148
6 | O=C(NCCc1c[nH]c2ccc(Cl)cc12)c1cccc(Cn2cccn2)c1 [Cpd006, 3-((1H-pyrazol-1-yl)methyl)-N-(2-(5-chloro-1H-indol-3-yl)ethyl)benzamide] | 0.256
7 | O=C(NCCc1c[nH]c2ccc(Cl)cc12)c1cccc(Cc2ccc(C(F)(F)F)cc2)c1 [Cpd040, N-(2-(5-chloro-1H-indol-3-yl)ethyl)-3-(4-(trifluoromethyl)benzyl)benzamide] | 0.103
8 | O=C(NCCc1c[nH]c2ccc(F)cc12)c1cccc(Cc2cccc(F)c2)c1 [Cpd082, N-(2-(5-fluoro-1H-indol-3-yl)ethyl)-3-(3-fluorobenzyl)benzamide] | 0.112
9 | N#Cc1ccc2[nH]cc(CCNC(=O)c3ccc(Cc4cccc(F)c4)cc3)c2c1 [Cpd115, N-(2-(5-cyano-1H-indol-3-yl)ethyl)-4-(3-fluorobenzyl)benzamide] | 0.075
10 | COc1ccc(Cc2cccc(C(=O)NCCc3c[nH]c4ccc(Cl)cc34)c2)cc1 [Cpd057, N-(2-(5-chloro-1H-indol-3-yl)ethyl)-3-(4-methoxybenzyl)benzamide] | 0.147
11 | O=C(NCCc1c[nH]c2ccc(Cl)cc12)c1cccc(Cc2cccc(F)c2)c1 [Cpd053, N-(2-(5-chloro-1H-indol-3-yl)ethyl)-3-(3-fluorobenzyl)benzamide] | 0.017
12 | O=C(NCCc1c[nH]c2ccc(Cl)cc12)c1ccc(Cc2cccc(F)c2)cc1F [Cpd099, N-(2-(5-chloro-1H-indol-3-yl)ethyl)-2-fluoro-4-(3-fluorobenzyl)benzamide] | 0.027
13 | N#Cc1ccccc1Cc1ccc(C(=O)NCCc2c[nH]c3ccc(Cl)cc23)cc1 [Cpd059, N-(2-(5-chloro-1H-indol-3-yl)ethyl)-4-(2-cyanobenzyl)benzamide] | 0.068
14 | O=C(NCCc1c[nH]c2ccc(Cl)cc12)c1cccc(Nc2ccccc2)c1 [Cpd094, N-(2-(5-chloro-1H-indol-3-yl)ethyl)-3-(phenylamino)benzamide] | 0.161
15 | O=C(NCc1c[nH]c2ccc(Cl)cc12)c1ccc(Cc2cccc(F)c2)cc1 [Cpd071, N-((5-chloro-1H-indol-3-yl)methyl)-4-(3-fluorobenzyl)benzamide] | 0.277
16 | O=C(NCCc1c[nH]c2ccc(Cl)cc12)c1ccc(Nc2cccc(F)c2)cc1 [Cpd106, N-(2-(5-chloro-1H-indol-3-yl)ethyl)-4-(3-fluorophenylamino)benzamide] | 0.082
17 | O=C(NCCc1c[nH]c2ccc(Cl)cc12)c1cccc(Cc2ccc(Cl)cc2)c1 [Cpd050, N-(2-(5-chloro-1H-indol-3-yl)ethyl)-3-(4-chlorobenzyl)benzamide] | 0.05
18 | O=C(NCCc1c[nH]c2ccc(Cl)cc12)c1cccc(Cc2ccsc2)c1 [Cpd076, N-(2-(5-chloro-1H-indol-3-yl)ethyl)-3-(thiophen-3-ylmethyl)benzamide] | 0.029
19 | O=C(NCCc1c[nH]c2ccc(Cl)cc12)c1cccc(Cc2cc(F)cc(F)c2)c1 [Cpd065, N-(2-(5-chloro-1H-indol-3-yl)ethyl)-3-(3,5-difluorobenzyl)benzamide] | 0.174
20 | O=C(NCCc1c[nH]c2ccc(Cl)cc12)c1ccc(Cn2ccnc2)cc1 [Cpd012, 4-((1H-imidazol-1-yl)methyl)-N-(2-(5-chloro-1H-indol-3-yl)ethyl)benzamide] | 0.486
21 | O=C(NCCc1c[nH]c2ccc(Cl)cc12)c1cccc(Cc2cccs2)c1 [Cpd075, N-(2-(5-chloro-1H-indol-3-yl)ethyl)-3-(thiophen-2-ylmethyl)benzamide] | 0.03

Row | SMILES | EC50 [µM]
22 | O=C(NCCc1c[nH]c2ccc(Cl)cc12)c1ccc(Cc2cccc(F)c2)c(F)c1 [Cpd100, N-(2-(5-chloro-1H-indol-3-yl)ethyl)-3-fluoro-4-(3-fluorobenzyl)benzamide] | 0.044
23 | N#Cc1cccc(Cc2cccc(C(=O)NCCc3c[nH]c4ccc(Cl)cc34)c2)c1 [Cpd038, N-(2-(5-chloro-1H-indol-3-yl)ethyl)-3-(3-cyanobenzyl)benzamide] | 0.031
24 | Cc1[nH]c2ccc(Cl)cc2c1CCNC(=O)c1ccc(Cc2cccc(F)c2)cc1 [Cpd098, N-(2-(5-chloro-2-methyl-1H-indol-3-yl)ethyl)-4-(3-fluorobenzyl)benzamide] | 0.535
25 | O=C(NCCc1c[nH]c2ccc(Cl)cc12)c1cccc(Cc2ccc(F)cc2)c1 [Cpd052, N-(2-(5-chloro-1H-indol-3-yl)ethyl)-3-(4-fluorobenzyl)benzamide] | 0.02
26 | O=C(NCCc1c[nH]c2ccc(Cl)cc12)c1ccc(Cc2cccnc2)cc1 [Cpd085, N-(2-(5-chloro-1H-indol-3-yl)ethyl)-4-(pyridin-3-ylmethyl)benzamide] | 0.117
27 | CN(c1ccccc1)c1ccc(C(=O)NCCc2c[nH]c3ccc(Cl)cc23)cc1 [Cpd096, N-(2-(5-chloro-1H-indol-3-yl)ethyl)-4-(methyl(phenyl)amino)benzamide] | 0.47
28 | O=C(NCCc1c[nH]c2ccc(Cl)cc12)c1ccc(Cn2cccn2)cc1 [Cpd011, 4-((1H-pyrazol-1-yl)methyl)-N-(2-(5-chloro-1H-indol-3-yl)ethyl)benzamide] | 0.173
29 | O=C(NCCc1c[nH]c2ccc(C(F)(F)F)cc12)c1ccc(Cc2cccc(F)c2)cc1 [Cpd108, 4-(3-fluorobenzyl)-N-(2-(5-(trifluoromethyl)-1H-indol-3-yl)ethyl)benzamide] | 0.32
30 | O=C(NCCc1c[nH]c2ccc(Cl)cc12)c1ccc(Cc2cccc(Cl)c2)cc1 [Cpd046, N-(2-(5-chloro-1H-indol-3-yl)ethyl)-4-(3-chlorobenzyl)benzamide] | 0.007
31 | O=C(NCCc1c[nH]c2ccc(Cl)cc12)c1cccc(Cc2cccc(C(F)(F)F)c2)c1 [Cpd044, N-(2-(5-chloro-1H-indol-3-yl)ethyl)-3-(3-(trifluoromethyl)benzyl)benzamide] | 0.055
32 | N#Cc1cccc(Cc2ccc(C(=O)NCCc3c[nH]c4ccc(Cl)cc34)cc2)c1 [Cpd032, N-(2-(5-chloro-1H-indol-3-yl)ethyl)-4-(3-cyanobenzyl)benzamide] | 0.014
33 | O=C(NCCc1c[nH]c2ccc(Cl)cc12)c1ccc(Cc2ccncc2)cc1 [Cpd086, N-(2-(5-chloro-1H-indol-3-yl)ethyl)-4-(pyridin-4-ylmethyl)benzamide] | 0.151
34 | N#Cc1cccc(Cc2ccc(C(=O)NCc3c[nH]c4ccc(Cl)cc34)cc2)c1 [Cpd072, N-((5-chloro-1H-indol-3-yl)methyl)-4-(3-cyanobenzyl)benzamide] | 0.132
35 | Cc1ccc(Cc2cccc(C(=O)NCCc3c[nH]c4ccc(Cl)cc34)c2)cc1 [Cpd034, N-(2-(5-chloro-1H-indol-3-yl)ethyl)-3-(4-methylbenzyl)benzamide] | 0.062
36 | O=C(NCCc1c[nH]c2ccc(Cl)cc12)c1ccc(Cc2cccs2)cc1 [Cpd079, N-(2-(5-chloro-1H-indol-3-yl)ethyl)-4-(thiophen-2-ylmethyl)benzamide] | 0.081
37 | O=C(NCCc1c[nH]c2ccc(Cl)cc12)c1ccc(Cc2cccc(C(F)(F)F)c2)cc1 [Cpd042, N-(2-(5-chloro-1H-indol-3-yl)ethyl)-4-(3-(trifluoromethyl)benzyl)benzamide] | 0.031
38 | COc1ccccc1Cc1cccc(C(=O)NCCc2c[nH]c3ccc(Cl)cc23)c1 [Cpd030, N-(2-(5-chloro-1H-indol-3-yl)ethyl)-3-(2-methoxybenzyl)benzamide] | 0.096
39 | O=C(NCCc1c[nH]c2ccc(Cl)cc12)c1ccc(Cc2ccccc2Cl)cc1 [Cpd047, N-(2-(5-chloro-1H-indol-3-yl)ethyl)-4-(2-chlorobenzyl)benzamide] | 0.065
40 | O=C(NCCc1c[nH]c2ccc(-c3ccccc3)cc12)c1ccc(Cc2cccc(F)c2)cc1 [Cpd111, 4-(3-fluorobenzyl)-N-(2-(5-phenyl-1H-indol-3-yl)ethyl)benzamide] | 0.537
41 | O=C(NCCc1c[nH]c2ccc(Cl)cc12)c1ccccc1Cc1ccccc1 [Cpd009, 2-benzyl-N-(2-(5-chloro-1H-indol-3-yl)ethyl)benzamide] | 0.24
